Results: US20170165283A1, “USE OF BETA-NICOTINAMIDE MONONUCLEOTIDE IN PREPARATION OF HEALTH-CARE PRODUCTS FOR PREVENTING AND TREATING ARTERIOSCLEROSIS AND CARDIO-CEREBROVASCULAR DISEASES, AND HEALTH-CARE PRODUCT CONTAINING THE SAME” (BONTAC BIO-ENGINEERING (SHENZHEN) CO., LTD, priority 2015, published 2017)

Experiments:
[1] = test system: guinea pigs fed on high-fat diet (arteriosclerosis, lesion of the aorta); test: Aortic lesion area (Sudan IV staining) in guinea pigs fed on high-fat diet; type: in vivo; settings: end of week 7, x±s
Protocol: 70 SPF healthy guinea pigs (female:male 1:1) having a body weight of 250-300 g, were assigned to 7 groups at random, each group having 10 animals. The groups include (1) a normal control group, fed on basal diet, and allowed to free access to water during experiment;
(2) a high fat control group, fed on high-fat diet, and allowed to free access to water during experiment;
(3) a high fat prevention group, fed on high-fat diet, dosed with 50 mg NMN/kg body weight every day by gavage, and allowed to free access to water during experiment;
(4) a low-dose NMN group, fed on high-fat diet, dosed with 0.5 mg NMN/kg body weight every day by gavage from week 6, and allowed to free access to water during experiment;
(5) a medium-dose NMN group, fed on high-fat diet, dosed with 50 mg NMN/kg body weight every day by gavage from week 6, and allowed to free access to water during experiment;
(6) a high-dose NMN group, fed on high-fat diet, dosed with 100 mg NMN/kg body weight every day by gavage from week 6, and allowed to free access to water during experiment; and (7) a NMN+NR group, fed on high-fat diet, dosed with 50 mg NMN/kg body weight and 5 mg NR/kg body weight every day by gavage from week 6, and allowed to free access to water during experiment.
The formulation of the high-fat diet includes 75% basal diet, 5% cholesterol, and 20% lard oil.
At the end of week 7, all the experimental animals was fasted (allowed to access to water) for 12 hrs and then sacrificed. The aorta was isolated, dissected longitudinally along the midline of the anterior wall, and stained with Sudan IV. […] The lesion area pathologically measured and the total endangium area were quantified, and the degree of arteriosclerosis was expressed by percentages of the lesion area relative to the total endangium area of the aorta.
Statistical analysis: All the experimental data is analyzed by SPSS13.0 Statistics software. The measurement data is expressed as x±s, and t test is applied to check the statistical significance. Where P <0.05, there is statistical significance.

[2] = test system: patients diagnosed as having cardio-cerebrovascular diseases resulting from arteriosclerosis; test: Clinical trial in patients with cardio-cerebrovascular diseases resulting from arteriosclerosis; type: in vivo, human; settings: Group A: oral NMN 10 mg/kg body weight every day; for Total effective rate: excluding the withdrawing patients
Protocol: 200 patients (male:female 1:1, aged 35-76 years and 55 years on average, and having a course of disease of the shortest 2 years, the longest 7 years, and 4.8 years on average) diagnosed as having cardio-cerebrovascular diseases resulting from arteriosclerosis were selected at random as subjects for clinical observation. The patients were assigned to a group A and a group B at random, each group having 100 patients.
Group A: The patients were orally administered with NMN at a dosage of 10 mg/kg body weight before or after meals every day, and the diet was controlled as desired.
Group B: The patients were orally administered with NMN at a dosage of 10 mg/kg body weight and with NR at a dosage of 2 mg/kg body weight before or after meals every day, and the diet was controlled as desired.
(1) Obvious effectiveness: The health is built up, the body is powerful, the blood lipid and blood pressure drop to normal levels, the palpitation, chest pain, chest tightness, headache, dizziness, decreased vision, decreased memory, insomnia and dreamful sleep, and other clinical symptoms are obvious alleviated.
(2) Effectiveness: The health is built up, the blood lipid and blood pressure drop slightly, the palpitation, chest pain, chest tightness, headache, dizziness, decreased vision, decreased memory, insomnia and dreamful sleep, and other clinical symptoms are alleviated to some extent.
(3) Ineffectiveness: There is no obvious improvement in the clinical symptoms.

NC(=O)c1ccc[n+]([C@@H]2O[C@H](COP(=O)([O-])O)[C@@H](O)[C@H]2O)c1 [NMN, β-nicotinamide mononucleotide]
Rate of lesion area of aorta (%) ([1]; high fat prevention group: high-fat diet, 50 mg NMN/kg body weight every day by gavage, n=10): 4 ± 1%
Rate of lesion area of aorta (%) ([1]; high-dose group: high-fat diet, 100 mg NMN/kg body weight every day by gavage from week 6): 12 ± 3%
Rate of lesion area of aorta (%) ([1]; low-dose group: high-fat diet, 0.5 mg NMN/kg body weight every day by gavage from week 6): 59 ± 4%
Rate of lesion area of aorta (%) ([1]; medium-dose group: high-fat diet, 50 mg NMN/kg body weight every day by gavage from week 6): 23 ± 2%
Time after administration at which patients with mild disease are cured [2]: 7 days
Patients showing obvious effectiveness ([2]; after 1 month): 67 out of 100 patients
Patients showing effectiveness ([2]; after 1 month, 100 patients): 28 patients
Patients showing ineffectiveness ([2]; after 1 month, 100 patients): 4 patients
Total effective rate ([2]; after 1 month): 96%
Total effective rate ([2]; after 1 month, listed as β-nicotinamide mononucleotide): up to 96%
